Measured values: patent publication US20080124813A1, “Bead-based radioimmunoassay” (Phoenix Pharmaceuticals, Inc., priority 2006, published 2008)
One block for each substance: values may come before it. No end group written: not given here.

What was measured:
anti-ghrelin antibody [1] = assay: Time course of I^125-ghrelin binding to anti-ghrelin antibody-conjugated bead; settings: room temp (21° C.), 0-249 min, FIG. 3
Experimental: A particular embodiment of the immunoassay method for dissociable capture of radiolabeled ghrelin peptide by solid phase linked antibody can be performed as follows:
1. Combine 100 ul of I^125-ghrelin (specific activity 3.15 p mole/ml) prepared in accordance with Example 1.3 (Example 1 step 3) to each of eight aliquots of 50 μL antibody-conjugated beads and to each of two aliquots of 50 μL glycine-conjugated beads prepared in accordance with Example 2B suspended in stock solution (0.01 M Tris (pH 7.4), 0.1% NaN3, 0.1% w/v bovine serum albumin (BSA), 0.15M NaCl, and 0.001M EDTA.
2. Incubate antibody-conjugated beads at room temp (21° C.) for 0, 5, 10, 15, 30, 60, 120, and 249 min.
3. To each incubated mixture of antibody-conjugated beads and I^125-ghrelin add 1.5 ml RIA buffer (150 mM NaCl, 100 mM sodium phosphate, 1% BSA and 1% Triton X-100), mix, and centrifuge for 5 minutes at 17,000× g. Aspirate off the supernatant. 4. Wash once with 1 ml RIA buffer. Aspirate off the supernatant
5. Measure and record counts per minute for each assay tube.
The results shown are the means of duplicates. The counts from gamma counter represent the specific binding by anti-ghrelin antibody. The binding curve was generated using a non-linear least square fitting program in GraphPad Prism (version 2.01).

insulysin (IDE) = insulysin (IDE) (Homo sapiens, UniProt P14735); assay: Peptide degradation by insulysin (IDE), read out by bead-based RIA; format: biochemical; settings: for degradation kinetics with insulysin (IDE): 37° C., 0-15 min, means of duplicates, FIGS. 10 and 11
Description: Now referring primarily to FIGS. 10, 11 and 12 and Example 12, an embodiment of the inventive immunoassay system (1) allows for the coincident measurement of the degradation of a plurality of target particles (7) contained in the same immunoassay sample (6). […] Similarly, now referring to FIG. 11, the inventive immunoassay method can be used to determine the decreased concentration of amylin in an immunoassay sample (6) upon degradation by IDE.
1. Prepare separately solutions of 200 pg/mL of human glucagon (adjust with I^125-glucagon) and 40 pg/mL of human amylin (adjust with I^125-amylin) each in a total volume of 2 mL.
2. Prepare a digestion solution of insulysin (IDE) 6.2 μg in 3.1 mL of 0.15M NaCl, 25 mM Tris, pH7.5. Aliquote 0.4 mL to a tube for total of 12 tubes of digestion solution.
3. Add to the digestion solution with above 0.4 mL of human glucagon or amylin solution.
4. Incubate at 37° C. for a time interval at 15, 10, 7, 5, 3, 1 min and a tube without the incubation.
5. At the indicated time, add 40 μL protease inhibitor (bacitracin 2 mg/ml final concentration) and 300 μL of 10 mM ammonium chloride to stop the reaction.
6. Transfer 50 μL antibody conjugated bead prepared in accordance with Example 2B, 120 μL RIA buffer, 50 μl aprotinin and 80 μL of digested I^125-labeled peptide solution to 1 mL conical tube and incubate with agitation for 30 min.
7. Spin 5 min at 16000×g to pellet the beads and discard supernatant.
8. Add 1 mL of RIA buffer and centrifuge at 1700×g for 5 min.
9. Remove the supernatant and count the CPM of the pellet by gamma counter.

anti-ghrelin antibody [2] = assay: 150 μl small volume competitive radiolabeled ghrelin binding by bead-linked antibody (bead-based RIA); settings: competition with I^125-ghrelin, total volume about 150 μl; stated as comparable to conventional RIA of Example 1
Experimental: A particular embodiment of the immunoassay method for competitive dissociable capture of radiolabeled ghrelin peptide by solid phase linked antibody to determine ghrelin peptide concentration in a 150 μl small volume immunoassay sample can be performed as follows:
1. Combine 25 μl of antibody conjugated beads in stock solution prepared in accordance with Example 2B to 50 μl human plasma or 50 μl standard solution.
2. Mix the resulting combination and incubate 6 hrs at 4° C.
3. Add 25 μl of I^125-ghrelin prepared in accordance with Example 1.3 and 50 μl RIA buffer.
4. Incubate 16-18 hrs. at 4° C.
5. Add 1.5 ml RIA buffer to incubated mixture and centrifuge for 5 minutes at 17,000× g. Aspirate off the supernatant (except total counts tubes). 6. Wash once with 1 ml RIA buffer. Aspirate off the supernatant (except total counts tubes).
7. Measure and record counts per minute for each assay tube.
The plasma concentration was interpolated from standard curves and indicate about 18.7 pg in 150 ul solution. The amounts of isotope labeled-ligands applied (as indicated in total counts tubes) was twice that of the conventional RIA described in Example 1. […] The total assay time was about 24 hours for this embodiment of the inventive immunoassay method. […]

anti-ghrelin antibody [3] = assay: 60 μl small volume competitive radiolabeled ghrelin binding by bead-linked antibody (bead-based RIA); settings: competition with I^125-ghrelin, total volume about 60 μl; stated as comparable to conventional RIA of Example 1
Experimental: A particular embodiment of the immunoassay method for competitive dissociable capture of radiolabeled ghrelin peptide by solid phase linked antibody to determine ghrelin peptide concentration in a 60 μl small volume immunoassay sample can be performed as follows:
1. Combine 25 μl of antibody immobilized beads in stock solution prepared in accordance with Example 2B to about 25 μl human plasma or 10 μl-25 μl standard solution.
2. Mix resulting combination and incubate 6 hours at room temperature.
3. Add 10 μl 125I-peptide. Mix and incubate overnight (16-18 hrs.) at 4° C. 4. Add RIA buffer. Mix and centrifuge for 5 minutes at 1,700 g. Aspirate off the supernatant (except total count tubes). 5. Wash once with 1 ml RIA buffer. Aspirate off the supernatant (except total count tubes).
6. Measure and record counts per minute for each assay tube.
The plasma concentration was interpolated from standard curves and indicate about 18.7 pg in 150 μl solution. The amounts of isotope labeled-ligands applied (as indicated in total counts tubes) was twice that of the conventional RIA as described in Example 1. […]

Substance: I^125-ghrelin: I^125-labeled ghrelin peptide used as labeled particle (GSSFLSPEHQRVQQRKESKKPPAKLQPR; ends and bridges not checked; also: 125I label, position not given here; UniProt Q9UBU3 24-51, looked up)
time to saturation binding to antibody-conjugated beads (anti-ghrelin antibody [1]): two hour saturation binding

degradation kinetics with insulysin (IDE) (insulysin (IDE)): pseudo-first order degradation
Substance: amylin (KCNTATCATQRLANFLVHSSNNFGAILSSTNVGSNTY; not fully specified (C-terminus, bridges); cysteine pairing not given here; also: 125I label, position not given here; UniProt P10997 34-70, looked up) [human amylin, human amylin, adjusted with I^125-amylin, digested with insulysin]

degradation kinetics with insulysin (IDE) (insulysin (IDE)): pseudo-first order degradation
concentration in immunoassay sample upon degradation with insulysin (insulysin (IDE); increasing duration of incubation with IDE at 37° C., FIG. 10): decreases
Substance: glucagon

IC50 (anti-ghrelin antibody [2]): about 400 pg/ml
IC50 (anti-ghrelin antibody [3]): around 400 pg/ml
Substance: ghrelin (GSSFLSPEHQRVQQRKESKKPPAKLQPR; ends and bridges not checked; UniProt Q9UBU3 24-51, looked up) [human peptide ghrelin, 28 residues in the naturally occurring form; target particle of the immunoassay]
